This note sets out measurements from patent US20200165312A1, “COSMETIC COMPOSITION FOR IMPROVING SKIN CONDITIONS COMPRISING FUSION PROTEIN INCLUDING SKIN PENETRATION ENHANCING PEPTIDE” (LG HOUSEHOLD & HEALTH CARE LTD., priority 2017, published 2020).

One data set concerns dermal fibroblasts. Put plainly: Hyaluronic acid (HA) production in dermal fibroblasts (ELISA). Format: cell-based, human. As to conditions: 10 ng/mL T-VEGF or VEGF, two days; control = 100. On the procedure: Specifically, dermal fibroblasts were inoculated onto a 24-well plate and cultured for 24 hours to obtain cultures having a saturation degree of 70 to 80%. The cultures were washed with PBS and cultured in a serum-free DMEM medium including 10 ng/mL T-PDGFa or PDGFa for two days. A supernatant was obtained therefrom and the amount of hyaluronic acid (HA) produced and released in the culture solution was quantitively analyzed using an ELISA kit (R&D Systems) (Table 5).
Specifically, dermal fibroblasts were inoculated onto a 24-well plate and cultured for 24 hours to obtain cultures having a saturation degree of 70 to 80%. […] A supernatant was obtained therefrom and the amount of hyaluronic acid (HA) produced and released in the culture solution was quantitively analyzed using an ELISA kit (R&D Systems) (Table 9).
In general terms: ELISA stands for enzyme-linked immunosorbent assay.

A further data set concerns dermal papilla cells. Put plainly: Hair follicle stem cell proliferation: dermal papilla cells, Cell Counter Kit-8. Format: cell-based. As to conditions: 1 ng/mL T-VEGF or VEGF, one day; control = 100. The procedure: (§1) Specifically, dermal papilla cells were inoculated onto a 96-well plate and cultured for 24 hours to obtain cultures at a density of 6,000 cells per well. The cultures were washed with PBS and cultured in a serum-free DMEM medium for one day. The cells were washed with PBS again and cultured in a serum-free DMEM medium supplemented with 1 ng/mL T-PDGFa or PDGFa for one day. The cultures were obtained therefrom and a difference between proliferated amounts of cells was quantitively analyzed using the Cell Counter Kit-8 (Dojindo). Here, dermal papilla cells cultured in a serum-free DMEM medium without T-PDGFa or PDGFa were used as a control (Table 6).
Specifically, dermal papilla cells were inoculated onto a 96-well plate and cultured for 24 hours to obtain cultures at a density of 6,000 cells per well. The cultures were washed with PBS and cultured in a serum-free DMEM medium for one day. […] The cultures were obtained therefrom and a difference between proliferated amounts of cells was quantitively analyzed using the Cell Counter Kit-8 (Dojindo).
as §1, with “T-IGF-1” for “T-PDGFa”, “IGF-1” for “PDGFa”, “15).” for “6).”
as §1, with “10” for “1”, “T-KGF” for “T-PDGFa”, “KGF” for “PDGFa”, “19).” for “6).”
as §1, with “10” for “1”, “T-Tβ4” for “T-PDGFa”, “Tβ4” for “PDGFa”, “23).” for “6).”

The subject of data set [1] is human umbilical vein endothelial cells. Put plainly: Endothelial cell proliferation, Cell Counter Kit-8. It counts as cell-based. Conditions: 100 ng/mL T-VEGF or VEGF, serum-free M199, one day; control = 100. On the procedure:
Specifically, human umbilical vein endothelial cells were inoculated onto a 96-well plate and cultured for 24 hours to obtain cultures at a density of 5,000 cells per well. The cultures were washed with PBS and cultured in a serum-free M199 medium for 16 hours. […] The cultures were obtained therefrom and a difference between proliferated amounts of cells was quantitively analyzed using the Cell Counter Kit-8 (Dojindo).
Specifically, human umbilical vein endothelial cells were inoculated onto a 96-well plate and cultured for 24 hours to obtain cultures at a density of 5,000 cells per well. The cultures were washed with PBS and cultured in a serum-free M199 medium for 16 hours. The cells were washed with PBS again and cultured in a serum-free M199 medium supplemented with 100 ng/mL T-Tβ4 or Tβ4 for one day. The cultures were obtained therefrom and a difference between proliferated amounts of cells was quantitively analyzed using the Cell Counter Kit-8 (Dojindo). Here, human umbilical vein endothelial cells cultured in a serum-free M199 medium without T-Tβ4 or Tβ4 were used as a control (Table 22).

The conditions of data set [2]: 2 μg in donor chamber, 16 hours, amount in receiver chamber relative to control peptide.
The conditions of data set [3]: amount present in the porcine skin by HPLC, relative to control peptide.
The test system of the next data set is C2C12 cells. Put plainly: Inhibition of muscle contraction: contractions of C2C12 cells co-cultured with neuroblasts. It counts as cell-based. As to conditions: 50 ppm, 2 hours, medium without FBS, counted for 30 seconds; FIG. 1. On the procedure: Then, the number of contractions of the C2C12 cells was measured for 30 second at the initial stage of cell contraction and all of the medium was removed, followed by washing three times with PBS. The cells were reacted for 2 hours in a medium supplemented with 50 ppm of the fusion peptide without the FBS. Then, the number of contractions of the C2C12 cells was measured for 30 seconds to identify the degree of inhibiting muscle contraction.

Where a SMILES comes first, the peptide text is derived from it. Where no end group is shown, it is not given here. The star is where a group is joined. Palmitoyl = CCCCCCCCCCCCCCCC(=O)*

With VEGF, the “Production (%) of hyaluronic acid (HA)” value in the data set on dermal fibroblasts stood at 220 ± 20%. The “Proliferation (%)” value with dermal papilla cells turned out to be 340 ± 50%; in data set [1] it was 170 ± 10%.
On to `CCCCCCCCCCCCCCCC(=O)N[C@@H](Cc1ccc(O)cc1)C(=O)N1CCC[C@H]1C(=O)N[C@@H](Cc1c[nH]c2ccccc12)C(=O)N[C@H](C(=O)N[C@@H](CCC(N)=O)C(=O)N[C@@H](CCCNC(=N)N)C(=O)N[C@@H](Cc1ccccc1)C(=O)N[C@@H](CC(N)=O)C(=O)NCC(=O)N[C@@H](CO)C(=O)N[C@@H](CC(C)C)C(=O)N[C@@H](CC(N)=O)C(=O)N[C@H](C(=O)N[C@@H](Cc1c[nH]cn1)C(=O)N[C@@H](CC(C)C)C(=O)N[C@@H](C)C(=O)N1CCC[C@H]1C(=O)N[C@H](C(=O)N[C@@H](CC(C)C)C(=O)O)[C@@H](C)CC)[C@@H](C)O)[C@@H](C)O` [Fusion protein including [Pal]YPWTQRF] (Palmitoyl-YPWTQRFNGSLNTHLAPIL-OH), for which the “Penetration enhancement (%)” value in data set [2] worked out at 280 ± 15%. Besides, in data set [3], the “Relative penetration (%)” value is recorded as 6290 ± 1350%.
As to “Acetyl-Glu-Glu-Met-Gln-Arg-Arg (Ac-EEMQRR) [Argireline ™, neurotransmitter release regulating peptide used as control peptide]”, the “number of contractions of the C2C12 cells” value with C2C12 cells is “reduced”.
